# Results as given in patent US9180217B2, “Sterilization system and device” (priority 2004, dated 2015).
# “Also recorded” adds a separate entry of the source.
# Tests used:
# Bacillus subtilis [1] = assay: Pressure vessel NO sterilization of dipped stainless steel strips; type: cell-based, Bacillus subtillis var niger 9372; conditions: Five Minute Sterilization Cycle, NO gas at atmospheric pressure
# Text: (§1) A glass pressure vessel is connected to a scrubbed NO gas tank source. The pressure vessel is purged five times with Argon gas to eliminate atmospheric oxygen (preventing formation of NO2•) and an additional three purges of NO are used to ensure a pure NO atmosphere and consistent results of bactericidal activity. To test the sterilization method: Bacillus subtillis var niger 9372 is used (after obtaining >80% endospore formation; a standard for ethylene oxide and autoclave test sterilization), as well as organisms commonly found on the epidermis: Staphylococcus aureus (strain 21769) and Staphylococcus epidermides (strain 21977), and the enteric organisms: Klebsiella pneumoniae (strain 21991) and Serratia marcesens (strain 21140). This particular Serratia strain has been found in previous studies to be one of the most resistant bacteria to the bactericidal effects of NO in culture. See, Raulli R et al., Recent Res Devel Microbiol 6: 177-183, 2002, the entire contents of which is incorporated by reference herein.
# (§2) The organisms are cultured overnight in brain heart infusion BHI. […]
# (§3) The sealed vessel is carefully opened in a laminar flow hood after all the NO had been purged with Argon. […] The samples are observed (digitally photographed) 24 hrs later, placed back in the waterbath and are measured for absorbance 72 hrs later. […]
# Staphylococcus aureus = assay: as above; type: cell-based, Staphylococcus aureus (strain 21769); conditions: Five Minute Sterilization Cycle, NO gas at atmospheric pressure
# Text: as §1, §2, §3
# [2] = test system: Bacillus subtilis (spore); assay: Portable system (blood storage container, diazeniumdiolate plus acidic buffer) sterilization of stainless steel strips; type: cell-based, B. subtilis (endosporulated); conditions: Fifteen Minute Sterilization Cycle; stainless steel strip
# Text: (§4) Similar to Example 1, a portable system is devised using blood storage containers and other laboratory items. In this construct, a blood storage container (Nexell, Irvine, Calif.; Lifecell PL732 plastic tissue culture flask) serves as the sterilization chamber. It has multiple ports, is easily attached to tubing or other chambers, and is easily cut and heat sealed for insertion and removal of contaminated/sterilized samples. The heat seal is strong and holds well at pressure, even though 1 ATM of pressure is used experimentally. Two 60 ml syringes connected to each other and a line of tubing by a three-way stopcock are employed to mix acidic buffer in one syringe with NO-releasing diazeniumdiolate in the other syringe. The tubing is connected to the blood container/sterilization chamber.
# (§5) The stopcock is turned so that the acidic buffer can be added to the syringe containing the diazeniumdiolate. The valve is immediately closed to the buffer syringe and opened to the sterilization chamber. The 300 cc sterilization chamber inflates in about 15 seconds. Experiments are performed as described above, except that the devised system is used instead of the pressure vessel.
# (§6) The test organisms are cultured overnight in BHI. The cultures contained at least 10^8 CFU/ml (100-fold greater than FDA testing guidelines) based on standardized ABS595 curves for each organism. […]
# Bacillus subtilis [3] = assay: as above; type: cell-based, B. subtilis (vegetative); conditions: Fifteen Minute Sterilization Cycle; stainless steel strip
# Text: as §4, §5, §6
# [4] = test system: Staphylococcus epidermides; assay: as above; type: cell-based, S. epidermides; conditions: Fifteen Minute Sterilization Cycle; stainless steel strip
# Text: as §4, §5, §6
# Serratia marcesens = assay: as above; type: cell-based, S. marcesens; conditions: Fifteen Minute Sterilization Cycle; stainless steel strip
# Text: as §4, §5, §6
# cocktail of bacteria = assay: Humidity effects on live bacteria, sealed and unsealed dry samples; type: cell-based; conditions: 15 min Sterilization cycle, 1 atmosphere
# Text: This Example tests several humidifying paradigms and the ability to sterilize through a gas sterilization seal pouch. A cocktail of bacteria is used, grown to about 10^8 CFU/ml and mixed in equal volume. Stainless steel strips are dipped, allowed to dry, and subject to one of three methods: A, B and C. Method A samples are wrapped in a moist Kimwipe. Method B samples are left dry. Method C samples are dried and sealed in a V. Mueller™ Dual Peel Seal Pouch, which is designed for gas and autoclave sterilizations. Samples from methods B and C are placed in the sterilization chamber with a moist Kimwipe. Placement in the chamber is done so as to insure maximal separation of the Kimwipe and the sample(s). The chamber is re-sealed carefully so as not to disturb the positioning of the samples relative to the Kimwipe. Each sample is exposed to a 15 minute sterilization cycle at 1 atmosphere, removed under sterile conditions, and the samples are placed in BHI media as described above. Experimental samples are exposed to NO gas while control samples are handled identically, except that the chamber is gassed with nitrogen. All controls reached greater than 10^6 total CFU/ml in 24 hrs as determined by ABS595 standardization curves.
# [5] = test system: Bacillus stearothemophilus spores (ATCC 7953); assay: Spore studies in lumens (wire biological indicators, resistometer); type: cell-based; conditions: 5 min, 23° C., NO then air
# Method: The ability of the nitrogen oxide gases to penetrate an inner open space or cavity within a tube (i.e., a lumen) and inactivate spores in the lumen is evaluated. The spores used are those that are most resistant to the nitrogen oxide gases.
# The following configuration of lumens are tested:
# (a) 17″ stainless (SS) tubes having a 2.5 mm inner diameter (I.D.), bent in “U” shape
# (b) 60″ polyethylene (PE) tube having a 4.5 mm ID, coiled and in Tyvek pouch
# (c) 60″ PE tube having a 4.5 mm ID and a 1.5 mm outer diameter (O.D.) PEEK tube inside, coiled and in Tyvek pouch
# Wire biological indicators are inoculated with 10^6 Bacillus stearothemophilus spores (ATCC 7953), (Raven Lot 3W67583) and placed at the center point of the tube in each of these configurations. The coiled polyethylene tubes were then heat-sealed in a TYVEK sterilization pouch.
# Separately, each of the lumen samples are tested. The stainless steel tube (triplicate samples: SS-1, SS-2, and SS-3), the polyethylene tube, and the polyethylene tube with the PEEK catheter were each placed in a resistometer and exposed to the following gas cycle for 5 minutes at 23° C. This gas cycle is defined as follows: […]
# The sterilization chamber/resistometer is evacuated and held at vacuum for 2 minutes. NO gas is then added to the sterilization chamber until the vacuum is decreased by 1″Hg. This condition is maintained for 2 minutes. Are is then added until the chamber reaches atmospheric pressure and the condition is held for 5 minutes.
smiles,measurement,setting,value
"[N]=O [NO, nitric oxide]",trials showing no bacterial growth (Killed),Bacillus subtilis [1],3/3 Killed
same,trials showing no bacterial growth (Killed),Staphylococcus aureus,3/3 Killed
same,trials Killed,[2],2/2
same,trials Killed,Bacillus subtilis [3],2/2
same,trials Killed,[4],3/3 Killed
same,trials Killed,Serratia marcesens,3/3 Killed
same,trials Killed,"cocktail of bacteria; Method A, sample wrapped in Moist Kimwipe",Killed
same,trials Killed,"cocktail of bacteria; Method B, Dry sample",sterilized dry samples; also recorded: Killed
same,trials Killed,"cocktail of bacteria; Method C, Dry, Sealed in Dual Peel Seal Pouch",Killed
same,spore condition (Dead/Live) after 14 days of incubation,"[5]; (a) SS-1, 17″ stainless tube 2.5 mm I.D.",Dead
same,spore condition (Dead/Live) after 14 days of incubation,"[5]; (a) SS-2, 17″ stainless tube 2.5 mm I.D.",Dead
same,spore condition (Dead/Live) after 14 days of incubation,"[5]; (a) SS-3, 17″ stainless tube 2.5 mm I.D.",Dead
same,spore condition (Dead/Live) after 14 days of incubation,"[5]; (b) PE Sheath, 60″ polyethylene tube 4.5 mm ID in Tyvek pouch",Dead
same,spore condition (Dead/Live) after 14 days of incubation,[5]; (c) PE Sheath with Catheter (PEEK tube inside) in Tyvek pouch,Dead
